Measured values taken from paper PMC3454511 (The Journal of organic chemistry, 2012).
≈ marks a conversion by molar mass, not a printed value.

Experiments:
Caco-2 monolayer = test: Bidirectional Caco-2 permeability; format: in vitro ADME; details: for Caco-2 A-B: A-B direction; for Caco-2 B-A: B-A direction
Plasma stability, mouse = details: % parent remaining at 5 h
[1] = BBB parallel artificial membrane permeability assay; format: in vitro ADME; details: for BBB PAMPA: Pe
[2] = Solubility in PBS and H2O, dry powder, 24 hour timepoint
[3] = Plasma protein binding by rapid-equilibrium dialysis, mouse; details: 37 °C for 5 h
[4] = Hepatocyte stability, mouse; details: % parent remaining at 2 hour
[5] = Microsomal stability, mouse; details: % parent remaining at 1 hour
[6] = Hepatocyte stability, human; details: % parent remaining at 2 hour
[7] = Plasma protein binding by rapid-equilibrium dialysis, human; details: 37 °C for 5 h
[8] = Microsomal stability, human; details: % parent remaining at 1 hour
Plasma stability, human = details: % parent remaining at 5 h
[9] = Bidirectional Caco-2 permeability; format: in vitro ADME; details: human, Caco-2
physchem = details: thermodynamic from solid

Row | Caco-2 A-B (Caco-2 monolayer) | Caco-2 B-A (Caco-2 monolayer) | BBB PAMPA [1] | solubility H2O [2] [µM] | solubility PBS [2] [µM] | SMILES | plasma stability mouse (Plasma stability, mouse) [% remaining] | protein binding mouse [3] [% bound] | hepatocytes mouse [4] [% remaining] | microsomal stability mouse [5] [% remaining] | hepatocytes human [6] [% remaining] | protein binding human [7] [% bound] | microsomal stability human [8] [% remaining] | plasma stability human (Plasma stability, human) [% remaining] | Papp A→B [9] [×10⁻⁶ cm/s] | Papp B→A [9] [×10⁻⁶ cm/s] | Papp ([1]; PAMPA) [×10⁻⁶ cm/s] | solubility at 24 h (physchem; PBS, aqueous buffer) [µM] | solubility at 24 h (physchem; water) [µM]
1 | 16 10^−6 cm.s^−1 | 8 10^−6 cm.s^−1 | 83 10^−6 cm s^−1 | >500 | >500 | CCCN1[C@H](CO)[C@H](c2ccccc2)[C@@H]1CN [26b, ((2S,3R,4R)-4-(Aminomethyl)-3-phenyl-1-propylazetidin-2-yl)methanol] | 100 | 19 | 103 | 68 | 103 | 7 | 73 | 92 | – | – | – | – | –
2 | 48 10^−6 cm.s^−1 | 51 10^−6 cm.s^−1 | 14 10^−6 cm s^−1 | 496 (≈ 136 µg/mL) | 489 (≈ 134 µg/mL) | CCCN1C(CO)C2c3ccccc3N(C(C)=O)CC21 (racemic) [31b, 1-((±)-1-(Hydroxymethyl)-2-propyl-1,2a,3,8b-tetrahydroazeto[2,3-c]quinolin-4 (2H)-yl) ethanone] | 98 | 20 | 71 | 64 | 32 | 18 | 88 | 106 | – | – | – | – | –
3 | – | – | – | – | – | CCCN1C2CN(S(C)(=O)=O)CC1C2c1ccccc1 (stereo not shown) [27c, 3-(Methylsulfonyl)-7-phenyl-6-propyl-3,6-diazabicyclo[3.1.1]heptane] | 102 | 39 | 67 | 72 | 72 | 31 | 86 | 113 | 66 | 54 | 31 | 470 (≈ 138 µg/mL) | 490 (≈ 144 µg/mL)

Row | SMILES | Caco-2 A-B (Caco-2 monolayer) | Caco-2 B-A (Caco-2 monolayer) | BBB PAMPA [1] | solubility H2O [2] [µM] | solubility PBS [2] [µM] | plasma stability mouse (Plasma stability, mouse) [% remaining] | protein binding mouse [3] [% bound] | hepatocytes mouse [4] [% remaining] | microsomal stability mouse [5] [% remaining] | hepatocytes human [6] [% remaining] | protein binding human [7] [% bound] | microsomal stability human [8] [% remaining] | plasma stability human (Plasma stability, human) [% remaining] | Papp A→B [9] [×10⁻⁶ cm/s] | Papp B→A [9] [×10⁻⁶ cm/s] | Papp ([1]; PAMPA) [×10⁻⁶ cm/s] | solubility at 24 h (physchem; PBS, aqueous buffer) [µM] | solubility at 24 h (physchem; water) [µM]
4 | CCCN1C2CN(C(C)=O)CC1C2c1ccccc1 (stereo not shown) [27b] | 54 10^−6 cm.s^−1 | 56 10^−6 cm.s^−1 | 15 10^−6 cm s^−1 | 483 (≈ 125 µg/mL) | 476 (≈ 123 µg/mL) | 94 | 13 | 94 | 93 | 104 | 23 | 93 | 83 | – | – | – | – | –
